The subject of assay [1] is hamsters feed with high cholesterol diet. Kind of assay: Cholesterol parameters in blood of hamsters fed a high cholesterol diet. The settings on record: for LDL/HDL: ratio of LDL-C to HDL-C; for LDL/HDL / HDL-C content / LDL-C content / MDA content / TC content / TG content: high cholesterol diet hamsters fed for 8 weeks; for HDL-C increasing rate / LDL-C reducing rate / LDL/HDL reducing rate / MDA reducing rate / TC reducing rate / TG reducing rate: relative to HC (high cholesterol diet group), 8 weeks; for HDL-C content: serum high density lipoprotein cholesterol; for LDL-C content: serum low density lipoprotein cholesterol; for MDA content: serum malondialdehyde; for TC content: serum total cholesterol, mean ± spread; for TG content: serum triglyceride. Further details: TC reducing rate / TG reducing rate / LDL-C reducing rate / LDL/HDL reducing rate / MDA reducing rate: concentration or dose not given beside the values. Format: in vivo. The procedure:
Hereinafter, the composition of the first preferred embodiment is called as monascin (MS for abbreviation), and the amount of the monascin taken by an experimental animal is equivalent to 9.82 mg taken by an adult human per day; the composition of the second preferred embodiment is called as ankaflavin (AF for abbreviation), and the amount of the ankaflavin taken by an experimental animal is equivalent to 1.43 mg taken by an adult human per day; the composition of the third preferred embodiment is called as monascin + ankaflavin (MS+AF for abbreviation), and the amount of the monascin and ankaflavin taken by an experimental animal are equivalent to 9.82 mg and 1.43 mg taken by an adult human per day respectively. Additionally, a composition containing monacolin K is utilized as a comparison group, which is called as MK for abbreviation.
(§1) Firstly, the experiment utilizes hamsters feed with high cholesterol diet as experimental animals, which are then feed with MS, AF, MS+AF, and MK for 8 weeks, and then each of cholesterol parameters in blood of the hamsters are analyzed. The cholesterol parameters include total cholesterol (TC), triglyceride (TG), high density lipoprotein cholesterol (HDL-C), low density lipoprotein cholesterol (LDL-C), ratio of LDL-C to HDL-C, and malondialdehyde (MDA). The amount of the MK taken by the experimental animals is equivalent to 2.89 mg taken by an adult human per day. Additionally, a normal diet group is referred to as NOR, and a high cholesterol diet group is referred to as HC.
Referring to the following table 1 and table 2, wherein the table 1 illustrates the results of the above-mentioned animal experiments, and the table 2 illustrates the reducing rate or the increasing rate of MS, AF, MS+AF, and MK relative to HC. […] In the results of the reducing rate of LDL-C, although the group of MS has the effect almost the same as MK, the groups of AF and MS+AF have the effect of lowering the amount of LDL-C better than the MK group. […]

The next assay has as its system cholesterol biosynthesis. Kind of assay: Cell experiment on inhibition of cholesterol biosynthesis. Format: cell-based. The settings on record: Fig. 12; cells treated at the same concentration (100 ppb). The text has this:
In order to compare the inhibitory effect of cholesterol biosynthesis by monascin, ankaflavin and monacolin K, the present invention applies a cell experiment and treats cells with monascin, ankaflavin and monacolin K with the same concentration (100 ppb) for researching the influence of these ingredients on the cholesterol biosynthesis. Referring to Fig. 12, which is a comparative diagram for the effect of the inhibition of cholesterol by monascin, ankaflavin and monacolin K with the same concentration.

In assay [2] the test system is lipid plaque on arterial vascular walls in the thoracic cavity. Kind of assay: Lipid plaque staining in arteries. Format: in vivo, hamsters. Conditions: Fig. 11; high cholesterol diet for eight weeks; MK 2.89 mg, MS 9.82 mg, AF 1.43 mg adult human equivalent per day. The method, then:
as §1
Another important indicator for evaluating atherosclerosis is the analysis of lipid plaque staining in arteries, and the results of lipid plaque staining can indicate that whether lipid plaque deposits on arterial vascular walls. Large amounts of lipid with over-oxidation can cause bulk deposition of foam cells, and then the vascular walls lose elasticity and large amounts of lipid plaque are deposited, so as to lead to atherosclerosis. Referring to Fig. 11, which is a diagram of quantitative results of the lipid plaque staining experiment.

Take `C/C=C/C1=CC2=C(CO1)C(=O)[C@]1(C)OC(=O)[C@H](C(=O)CCCCCCC)[C@H]1C2` [AF, ankaflavin]: in assay [1], the LDL/HDL amounted to 0.355 ±0.049, the HDL-C increasing rate came to 17.3%, the LDL-C reducing rate is given as 42.3% and the LDL/HDL reducing rate was 37.6%. Also, in assay [1], the MDA reducing rate is recorded as 59.6%, the TC reducing rate is 28.6%, the TG reducing rate is reported as 58.2% and the HDL-C content came out at 118.6 ± 8.09 mg/dL. In assay [1], the LDL-C content stood at 39.4 ± 5.80 mg/dL, the MDA content was 9.07 ± 1.45 mg/dL, the TC content turned out to be 168.9 ± 11.5 mg/dL and the TG content is 94.5 ± 18.0 mg/dL.

Take `CC[C@H](C)C(=O)O[C@H]1C[C@@H](C)C=C2C=C[C@H](C)[C@H](CC[C@@H]3C[C@@H](O)CC(=O)O3)[C@H]21` [MK, monacolin K, reference compound]: in assay [1], the LDL/HDL amounted to 0.489 ±0.050, the HDL-C increasing rate was -1.2%, the LDL-C reducing rate is reported as 34.1% and the LDL/HDL reducing rate is on record as 14.1%. Besides, in assay [1], the MDA reducing rate is recorded as 16.5%, the TC reducing rate was 19.6%, the TG reducing rate is reported as 42.1% and the HDL-C content came to 96.9 ± 8.84 mg/dL. Further, in assay [1], the LDL-C content is 45.0 ± 6.97 mg/dL, the MDA content is 10.37 ± 1.73 mg/dL, the TC content came to 190.3 ± 25.1 mg/dL and the TG content worked out at 131.1 ± 36.7 mg/dL. Besides, in the assay with cholesterol biosynthesis, the “effect of inhibiting the biosynthesis of cholesterol” value was “has the weakest effect”. In addition, in assay [2], the “amount of lipid plaque” value is reported as “can lower the amount of lipid plaque”.

Regarding `C/C=C/C1=CC2=C(CO1)C(=O)[C@]1(C)OC(=O)[C@H](C(=O)CCCCC)[C@H]1C2` [MS, monascin], in assay [1], the LDL/HDL is listed as 0.416 ±0.022, the HDL-C increasing rate was found to be 14.1%, the LDL-C reducing rate is on record as 33.9% and the LDL/HDL reducing rate was 26.9%. Also, in assay [1], the MDA reducing rate is 40.1%, the TC reducing rate was determined as 29.9%, the TG reducing rate is 63.4% and the HDL-C content is 114.2 ± 9.36 mg/dL. In assay [1], this molecule returned an LDL-C content of 45.1 ± 3.36 mg/dL, an MDA content of 8.62 ± 1.45 mg/dL, a TC content of 165.8 ± 10.6 mg/dL and a TG content of 82.8 ± 9.0 mg/dL.

The record behind these values is patent publication EP2559433A1, “Composition for lowering blood lipid and elevating high-density lipoprotein and method for manufacturing the same” (Sunway Biotech Co., Ltd., priority 2011, dated 2013).
